Data from ChEMBL document CHEMBL3988442, “University of Dundee, Small-Polar-MMV Screening Library” (2021).

Columns and labels:
Plasmodium falciparum = test: Calibr Malaria Delayed Death Assay SOP; assay type: functional, organism-based; details: for IC50: Plasmodium falciparum
[1] = microbe, parasite or virus in culture; details: Mycobacterium tuberculosis, 96 h, read-out: pIC50 (converted)
[2] = microbe, parasite or virus in culture; details: Mycobacterium tuberculosis, 72 h, read-out: pIC50 (converted)

Row | SMILES | pIC50 (Plasmodium falciparum) | IC50 (Plasmodium falciparum) | IC50 [1] | IC50 [2]
1 | Cc1nc(-c2ccc(F)c(F)c2)cc(C2CCNCC2)n1.Cl | 6.123 | 0.797 µM | – | –
2 | O=C(c1ccccc1)C1CCN(Cc2cc3c(cc2O)CCC3)CC1 | 6.259 | 0.613 µM | – | –
3 | NC(=O)CN1CCC(Nc2ccnc3ccc(Cl)cc23)CC1 | 6.054 | 0.761 µM | – | –
4 | Cc1cc(C[C@@H]2CCC[C@H]2NCc2c[nH]nc2-c2ccccc2)on1.O=C(O)CC(O)(CC(=O)O)C(=O)O | 5.845 | 1.23 µM | – | –
5 | CCn1nnc(NCc2ccccc2)n1 | – | – | > 501 µM | 229 µM
6 | O=C(NCCNC(=O)C1CCCC1)c1ccccc1O | – | – | 402 µM | 229 µM
7 | CN(Cc1c(F)cccc1Cl)S(=O)(=O)N1CCOCC1 | – | – | 269 µM | 270 µM
8 | CC(C)CCNC(=O)Nc1ccc(-n2cccn2)nc1 | – | – | 90 µM | 103 µM
9 | NCCc1nc(C2CC2)cs1 | – | – | 103 µM | 91.5 µM
10 | CCOC(=O)CCC(=O)c1ccc2c(c1)OCCO2 | – | – | 199 µM | 209 µM
11 | CN1CN(Cc2ccc(Cl)o2)CC1=O | – | – | > 501 µM | > 501 µM
12 | O=C(CCc1cc(Cl)no1)N1CCOC(C(F)(F)F)C1 (centres undefined) | – | – | 134 µM | > 501 µM
13 | COc1cccc(CNc2nc(C)no2)c1 | – | – | > 501 µM | 180 µM
14 | COc1cc(CCN)ccc1C | – | – | 277 µM | 303 µM
15 | COCCCSc1ccc(NCc2scnc2C)cc1 | – | – | 38.7 µM | 25.4 µM
16 | Cc1csc(NC(=O)NC(CO)CC(C)C)n1 (centres undefined) | – | – | 289 µM | 341 µM
17 | Cn1ncc2c(N3CCCN4CCC[C@H]4C3)nc(C(C)(C)C)nc21 | – | – | 47 µM | > 50.1 µM
18 | COc1cc(C(=O)NCC2CCC2)cc2c1OCCO2 | – | – | 321 µM | 245 µM
19 | CNC(=O)c1cc(-c2ccccc2C)n[nH]1 | – | – | 180 µM | > 501 µM
20 | Cc1cccc(CN2C[C@H]3CC[C@@H]2CN(Cc2[nH]cnc2C)C3)n1 | – | – | > 50.1 µM | > 50.1 µM
21 | CCNc1ccnc(C(=O)NCc2ccccc2)c1 | – | – | 148 µM | 169 µM
22 | O=S(=O)(NCCNc1ccc(-n2cccn2)nn1)c1ccccc1 | – | – | 15.9 µM | 24.9 µM
23 | COc1ccccc1-c1ncc(CN2C[C@@H](N(C)C)[C@H](C(C)C)C2)s1 | – | – | 25.4 µM | 31.4 µM
24 | CCc1noc(Cn2nc(C(F)(F)F)ccc2=O)n1 | – | – | 365 µM | 47.8 µM
25 | CCc1cc(N(C)Cc2ccncn2)n2nc(C)c(C)c2n1 | – | – | 14.2 µM | 33.8 µM
26 | O=C(C1Cc2cc(Cl)ccc2O1)N1CCOCC1 (centres undefined) | – | – | > 501 µM | > 501 µM

Row | SMILES | pIC50 (Plasmodium falciparum) | IC50 (Plasmodium falciparum) | IC50 [1] | IC50 [2]
27 | COC(=O)c1ccc(CCNC(=O)C2CCCO2)cc1 (centres undefined) | – | – | 383 µM | 281 µM
28 | CNS(=O)(=O)c1ccc(C(=O)NCc2ccccc2)o1 | – | – | > 501 µM | 151 µM
29 | NCC(=O)N1CCCC(CCc2ccc(F)cc2)C1 (centres undefined) | – | – | 310 µM | 333 µM
30 | COc1ccc(CC(=O)Nc2c(C)nc(N3CCCC3)nc2C)cc1 | – | – | > 50.1 µM | > 50.1 µM
31 | CC(C)c1ccc(C(N)CNS(C)(=O)=O)cc1 (centres undefined) | – | – | 268 µM | 202 µM
32 | CC(C)N1CC2(CCCN(Cc3noc(C4CCCC4)n3)C2)CCC1=O (centres undefined) | – | – | > 50.1 µM | > 50.1 µM
33 | CCCOc1cc(CNC(=O)c2csnc2C)ccn1 | – | – | 215 µM | 350 µM
34 | C[S+]([O-])c1nncn1CCCOc1cccc(Cl)c1 (centres undefined) | – | – | > 501 µM | 341 µM
35 | CCCNC(=O)c1cc(C(C)C)nc(N2CCCC2)n1 | – | – | 41.7 µM | 11.5 µM
36 | CN(C)c1nc(-c2ccc3c(c2)CCC(=O)N3)cs1 | – | – | 201 µM | 120 µM
37 | CC(C)Oc1ccc(S(=O)(=O)N2CCC(N)C2)cc1 (centres undefined) | – | – | > 501 µM | 212 µM
38 | OCCCN1CCCN(Cc2ccc(F)cc2)CC1 | – | – | > 501 µM | 186 µM
39 | CS(=O)(=O)N1CCC(NCCSc2cnn[nH]2)CC1 | – | – | > 501 µM | > 501 µM
40 | O=C(c1cccnc1)N1CCC2(CC1)CNc1c(F)cccc12 | – | – | > 50.1 µM | > 50.1 µM
41 | CCc1noc(CNc2cc3c(cc2Cl)OCCO3)n1 | – | – | 8.97 µM | 26.8 µM
42 | CN(Cc1c(F)cccc1Cl)C(=O)CNC(=O)C1CC1 | – | – | 71 µM | 237 µM
43 | Cc1nc(NCCSc2cnn[nH]2)c2c(C)noc2n1 | – | – | > 50.1 µM | > 50.1 µM
44 | CC(C)c1cc(CN2CCNCC2)no1 | – | – | > 50.1 µM | 32.6 µM
45 | CC(C)CC(O)C(=O)N1CCN(c2cccnc2)CC1 (centres undefined) | – | – | > 501 µM | 118 µM
46 | Cc1nc(N2CCCC2)nc2c1CCN(Cc1ccco1)CC2 | – | – | 4.23 µM | 4.72 µM
47 | O=C(COc1ncccn1)Nc1ccc(F)cc1F | – | – | > 501 µM | > 501 µM
48 | CS(=O)(=O)CCN1CCC(Oc2ccc(F)cc2)CC1 | – | – | 280 µM | 221 µM
49 | CC1CCN(S(=O)(=O)NC(C)C(C)C)CC1 (centres undefined) | – | – | > 501 µM | 261 µM
50 | CC(C)N(CCS(=O)(=O)c1ccccc1)CC(N)=O | – | – | > 501 µM | 435 µM
51 | Clc1cnc(NCCNCc2cc[nH]n2)c(Cl)c1 | – | – | > 501 µM | 227 µM
52 | CN1CCCN(C(=O)c2cc3c(s2)CCCC3)CC1 | – | – | > 501 µM | 211 µM

Row | SMILES | pIC50 (Plasmodium falciparum) | IC50 (Plasmodium falciparum) | IC50 [1] | IC50 [2]
53 | CCCC(C)N(C)Cc1nnc(-c2ccc(Br)s2)o1 (centres undefined) | – | – | 29.4 µM | 1.85 µM
54 | CCCNC(=O)c1ccc2snnc2c1 | – | – | 169 µM | 153 µM
55 | Cn1nnc(NCc2ccc(-c3ccc(Br)cc3)o2)n1 | – | – | 11.9 µM | 25.3 µM
56 | Cc1cc(NC(=O)CN(C)Cc2ccccc2)no1 | – | – | 243 µM | 266 µM
57 | COC(=O)COc1ccc(-c2noc(C3CCCO3)n2)cc1 (centres undefined) | – | – | 18.6 µM | 31.9 µM
58 | CCOC(=O)c1ccc(CN2CCOCC2)cn1 | – | – | > 501 µM | > 501 µM
59 | Fc1ccc(Cn2ncc3c2CN(c2noc(C4CC4)n2)C3)cc1 | – | – | 26.5 µM | > 50.1 µM
60 | COC(=O)C(NC(=O)c1ccc(NC2CC2)nc1)c1ccccc1 (centres undefined) | – | – | 21.9 µM | > 50.1 µM
61 | CS(=O)(=O)N1CCc2[nH]cnc2C12CCN(C(=O)c1ccccc1)CC2 | – | – | > 50.1 µM | > 50.1 µM
62 | CCc1ccc(NC(=O)CN2CC[C@@H](N)C2)cc1 | – | – | > 501 µM | 199 µM
63 | NCCCOc1ncc(C(F)(F)F)cc1Cl | – | – | 238 µM | 101 µM
64 | CC(=O)NCC(=O)N1C[C@@H]2CC[C@H](Oc3ccccc3Cl)[C@@H]2C1 | – | – | > 50.1 µM | > 50.1 µM
65 | Cc1cc(C)cc(OCCNC(=O)CSCC(N)=O)c1 | – | – | > 501 µM | 139 µM
66 | CN(Cc1cnn(C)c1)C(=O)c1cc(Br)c[nH]1 | – | – | > 501 µM | 95.2 µM
67 | CCNC(=O)C1CCCN(c2ccncc2Cl)C1 (centres undefined) | – | – | 281 µM | 129 µM
68 | CCCc1noc(C(C)Nc2cccc(C(N)=O)c2)n1 (centres undefined) | – | – | 156 µM | 56.4 µM
69 | NCC(CO)Cc1ccsc1 (centres undefined) | – | – | 176 µM | 122 µM
70 | N#Cc1cccc(NCC(=O)NCc2ccco2)c1 | – | – | 108 µM | 223 µM
71 | NCC(CO)Cc1cc(F)cc(Br)c1 (centres undefined) | – | – | 264 µM | 305 µM
72 | CC(C)CCN1Cc2c(C(=O)O)ncn2-c2ccccc2S1(=O)=O | – | – | > 50.1 µM | > 50.1 µM
73 | CCSc1nnc(-c2ccc[nH]2)o1 | – | – | 188 µM | 169 µM
74 | O=C(NCC1(c2ccc(F)cc2)CC1)N1CCC2(CCOC2)C1 (centres undefined) | – | – | > 50.1 µM | > 50.1 µM
75 | CC(CNC(=O)Cn1cccn1)Sc1ccccc1 (centres undefined) | – | – | 121 µM | 135 µM
76 | Cc1ccc(C(N)c2ccccn2)cc1 (centres undefined) | – | – | 191 µM | 90.7 µM
77 | CCOc1ccc2cc(S(=O)(=O)NCCO)ccc2c1 | – | – | 9.01 µM | 5.84 µM
78 | CCCC(C)N(C)Cc1nnc(-c2ccco2)o1 (centres undefined) | – | – | 29.5 µM | 5.32 µM

Row | SMILES | pIC50 (Plasmodium falciparum) | IC50 (Plasmodium falciparum) | IC50 [1] | IC50 [2]
79 | CN(CCC#N)C(=O)COC(=O)c1ccccc1Br | – | – | > 501 µM | 139 µM
80 | CN(C)CCCN1CC2(CCN(C3CCCOC3)CC2)OC1=O (centres undefined) | – | – | > 50.1 µM | > 50.1 µM
81 | COc1cccc(CN2CCC(CO)(Cc3ccc(Cl)cc3)CC2)c1O | – | – | 26.1 µM | 29.4 µM
82 | CC(C)N(C)S(=O)(=O)N1CCc2sccc2C1C (centres undefined) | – | – | 207 µM | 150 µM
83 | NCc1n[nH]c(-c2ccc(Br)cc2)n1 | – | – | > 50.1 µM | 24.3 µM
84 | NCCn1nc(C2CCN(Cc3ccccc3Cl)C2)c2nccnc21 (centres undefined) | – | – | > 50.1 µM | > 50.1 µM
85 | CCN(CCO)Cc1cc(-c2cccs2)on1 | – | – | > 501 µM | 145 µM
86 | CCCc1cc(C(=O)NCC2COCCO2)cs1 (centres undefined) | – | – | 124 µM | > 501 µM
87 | O=C(Nc1cc(Cl)ccc1F)C1=COCCO1 | – | – | 265 µM | 228 µM
88 | CCc1nc(CN(C)C2CCN(CCC(=O)N3CCCCC3)C2)no1 (centres undefined) | – | – | > 50.1 µM | > 50.1 µM
89 | Cc1ccc(-c2cc(CS(=O)(=O)NC3CCCNC3=O)on2)cc1 (centres undefined) | – | – | > 50.1 µM | > 50.1 µM
90 | CN(C(=O)CC1=CCCCC1)C1CCCN(C2Cc3ccccc3C2)C1 (centres undefined) | – | – | > 50.1 µM | > 50.1 µM
91 | CC1CN(CCCOc2ccc(C#N)cc2)CCN1 (centres undefined) | – | – | 390 µM | > 501 µM
92 | C[C@H](c1ccc(Cl)cc1)n1c(CCN)n[nH]c1=O | – | – | > 501 µM | 38.3 µM
93 | CC(C)(C)OC(=O)N1CCN(C2CCC(N)CC2)CC1 (centres undefined) | – | – | > 501 µM | > 501 µM
94 | Cn1cc(NC(=O)CNC(=O)N2CCN(c3ccccc3)CC2)cn1 | – | – | > 50.1 µM | > 50.1 µM
95 | CCOC(=O)c1cnc(N2CCNCC2)s1 | – | – | 240 µM | 256 µM
96 | CCCc1ccc(S(=O)(=O)N2CCNCC2)cc1 | – | – | > 501 µM | 299 µM
97 | CCn1ccnc1CN1CCCC1Cn1cc(C)cn1 (centres undefined) | – | – | > 50.1 µM | 46.3 µM
98 | O=C(c1cnc(C2CC2)nc1)N1CCCC(c2nccs2)C1 (centres undefined) | – | – | 6.43 µM | 8.4 µM
99 | NC1CCN(c2ncccc2Cl)C1 (centres undefined) | – | – | 217 µM | 135 µM
100 | NCc1coc(-c2cccs2)n1 | – | – | 298 µM | 144 µM
101 | CN1CCN(S(=O)(=O)N2CCCC2)Cc2ccccc21 | – | – | 271 µM | 155 µM
102 | CN(Cc1ccc(N)nc1)c1ncc(Cl)cn1 | – | – | 237 µM | 208 µM
